{"source": "patent US12661335B2", "about": "“Halogenated xanthene-containing topical anti-gram-positive bacterial ophthalmic composition and method” (Provectus Pharmatech, Inc., priority 2021, dated 2026)", "key": {"[1]": {"tested_on": "Mycobacterium smagmatis 607 ™", "experiment": "MIC, broth dilution method, dark condition", "format": "cell-based, Mycobacterium smegmatis", "conditions": "for MIC: read-out: MIC (μg/mL) against M. smegmatis 607 ™ (wild-type)"}, "[2]": {"tested_on": "biofilms of S. aureus 6508™", "experiment": "Biofilm eradication assay", "format": "cell-based, Staphylococcus aureus", "conditions": "linezolid at 600 μg/mL", "experimental": "62:394-399 (2013)], and was used as a control.\nLinezolid was applied as a positive control at very high concentration of 600 μg/mL (>100×MIC for the planktonic cells) in biofilm assays reported by Kurosu et al., Molecules 27:322 (2022)."}, "[3]": {"tested_on": "M. smegmatis 607 ™ (RB mutant)", "format": "cell-based, Mycobacterium smegmatis", "conditions": "dark condition; triplicated"}}, "note": "Where two headings read alike, the source gives them in different places.", "data": [{"molecule": "CO[C@H]1/C=C/O[C@@]2(C)Oc3c(C)c(O)c4c(O)c(c(/C=N/N5CCN(C)CC5)c(O)c4c3C2=O)NC(=O)/C(C)=C\\C=C\\[C@H](C)[C@H](O)[C@@H](C)[C@@H](O)[C@@H](C)[C@H](OC(C)=O)[C@@H]1C", "note": "[Rifampicin]", "values": [{"measurement": "MIC", "setting": "[1]", "value": 1.56, "unit": "µg/mL"}]}, {"molecule": "CC(=O)NC[C@H]1CN(c2ccc(N3CCOCC3)c(F)c2)C(=O)O1", "note": "[linezolid, reference compound]", "values": [{"measurement": "biofilm eradication efficacy of positive control compared with RB", "setting": "[2]", "value": "the same level of efficacy"}]}, {"molecule": "NCC[C@H](O)C(=O)N[C@@H]1C[C@H](N)[C@@H](O[C@H]2O[C@H](CN)[C@@H](O)[C@H](O)[C@H]2O)[C@H](O)[C@H]1O[C@H]1O[C@H](CO)[C@@H](O)[C@H](N)[C@H]1O", "note": "[Amikacin]", "values": [{"measurement": "MIC", "setting": "[1]; dark condition, triplicated", "value": 0.78, "unit": "µg/mL"}]}, {"molecule": "CCc1cc(C(N)=S)ccn1", "note": "[Ethionamide (ETH), Ethionamide]", "values": [{"measurement": "MIC", "setting": "[1]", "value": 12.5, "unit": "µg/mL"}]}, {"molecule": "NNC(=O)c1ccncc1", "note": "[Isoniazid (INH), Isoniazid]", "values": [{"measurement": "MIC", "setting": "[1]; dark condition, triplicated", "value": 1.56, "unit": "µg/mL"}]}, {"molecule": "NC[C@H]1O[C@@H](O[C@H]([C@H]2O[C@@H](n3ccc(=O)[nH]c3=O)[C@H](O)[C@@H]2O)[C@H](NCCCC(=O)NCc2ccc(N3CCC(Oc4ccc(OC(F)(F)F)cc4)CC3)cc2)C(N)=O)[C@H](O)[C@@H]1O", "note": "[APPB, aminouridyl phenoxypiperidinylbenzyl butanamide]", "values": [{"measurement": "MIC (μg/mL) against M. smegmatis 607 ™ (wild-type)", "setting": "[1]; dark condition, triplicated", "value": 0.20, "unit": "µg/mL"}, {"measurement": "MIC (μg/mL) against M. smegmatis 607 ™ (RB mutant)", "setting": "[3]", "value": 0.20, "unit": "µg/mL"}]}, {"molecule": "Capreomycin", "values": [{"measurement": "MIC (μg/mL) against M. smegmatis 607 ™ (wild-type)", "setting": "[1]; dark condition, triplicated", "value": 3.13, "unit": "µg/mL"}, {"measurement": "MIC (μg/mL) against M. smegmatis 607 ™ (RB mutant)", "setting": "[3]", "value": 3.13, "unit": "µg/mL"}]}]}
